Assay results from patent publication US10753938B2, “Beta-catenin inhibitors in cancer immunotherapy” (The University of Chicago, priority 2015, dated 2020).

How the values were obtained:
[1] = system: β-catenin-negative tumors (BP-SIY); assay: Migration of pertussis toxin-pretreated effector 2C T cells into tumor; type: in vivo, mouse; details: T cells treated 12 h with PTX before injection
Protocol: For adoptive T cell transfer experiments, tumor development was induced and transfer of 1×10^6 or 10×10^6 T cells was performed when tumors reached 600-1000 mm^3 (approx. 5-6 weeks after induction). Transferred T cells were isolated from gender-matched 2C donor mice using the Miltenyi CD8^+ enrichment Kit II for untouched CD8^+ T cell isolation. After isolation, cells were activated for three days through plate-bound CD3 (0.2 μg/ml; 145-2C11 clone; Biolegend) and CD28 (0.5 μg/ml; 37.51 clone; BD) antibodies. Following activation, T cells were stained with 1 μm CFSE-solution (eBioscience) for 8 min at 37° C. before intravenous injection. Tumor tissue, tumor-draining LNs, and spleen were harvested 3 days following adoptive transfer of T cells and used for flow cytometric analysis. […] For tumor tissues, the entirety of each sample was acquired and total number of CD3^+CD8^+ T cells and transferred 2C cells was assessed. The percentage 2C cells was calculated as [(100/CD3^+/CD8^+ T cells)*2C] and also the number of 2C cells per gram tumor. […]
To assess if lack of T cell infiltration was due to a defect in effector T cell recruitment, an adoptive T cell transfer approach was used, transferring in vitro-activated effector 2C T cells into tumor bearing BP-SIY and BPC-SIY mice. As a first assessment, only the capacity of the effector T cells to migrate into the tumor within 72 h was analyzed. […]

[2] = system: skin-derived CD11c^+CD103^+DCs; assay: Transwell migration assay; type: cell-based, mouse
Protocol: Dendritic cell populations were isolated from lymph nodes and skin of naïve 6 week-old C57BL/6 mice. For this purpose, skin tissue was digested in a similar way as tumor tissue and\ cells from skin and lymph node were stained using the previously described protocol for cell sorting. Subsequently, living, CD45^+, CD11c^+, CD8α^− or CD8α^+ cells were isolated from the lymph node sample as well as living, CD45^+, CD11c^+, CD103^+ from skin samples. Migration assays were performed as described previously with minor adaptations using 5×10^5 cells/well and pre-treatment of DC with pertussis toxin (Sigma) at a final concentration of 20 ng/ml for 1.5 h in indicated (Spranger et al. Journal of immunology 185, 738-747 (2010); herein incorporated by reference in its entirety). As a migration stimulus, CCL4 (R&D) was added to RPMI complete medium at 500 ng/ml or 48 h conditioned media from BP or BPC cell lines were used. At the endpoint, cells from the lower compartment as well as the trans-well were harvested and counted using a standard Neubauer counting chamber. Percentage of migrated cells was calculated as followed: count lower-well/(count upper-well+ count lower-well)*100; with the sum of trans-well and lower well-being >90% of the input cell count.

| Molecule | migration of effector 2C T cells into tumor [1] | DC migration in response to CCL4 ([2]; pretreatment of DC with pertussis toxin) | DC migration ([2]; CCL4 as migration stimulus) |
| --- | --- | --- | --- |
| pertussis toxin | completely block the migration | eliminated |  |
| recombinant murine CCL4: CCL4 (R&D) added as migration stimulus at 500 ng/ml (protein) APMGSDPPTSCCFSYTSRQLHRSFVMDYYETSSLCSKPAVVFLTKRGRQICANPSEPWVTEYMSDLELN |  |  | migrated in response to CCL4 |
